Data reported in a compilation of properties of binary mixtures (doi:10.1016/j.jct.2020.106330).

Assay: xn = mol fraction of the nth substance listed
Settings: 101.3 kPa

Work on `CN1CCCC1=O` + CCCC[n+]1ccn(C)c1.F[P-](F)(F)(F)(F)F yielded a speed of sound (308.15 K, x2 = 0) of 1505 m/s, a speed of sound (313.15 K, x2 = 0) of 1485.7 m/s and a speed of sound (318.15 K, x2 = 0) of 1466.7 m/s. For the same compound, the speed of sound (323.15 K, x2 = 0) was 1447.8 m/s.
In the case of `CCCC[n+]1ccn(C)c1.F[P-](F)(F)(F)(F)F` + CN1CCCC1=O, the speed of sound (303.15 K, x1 = 0.0513) was 1522.2 m/s, the speed of sound (303.15 K, x1 = 0.1028) was 1516.1 m/s and the speed of sound (303.15 K, x1 = 0.1422) was 1510 m/s. The speed of sound (303.15 K, x1 = 0.499) was 1460.7 m/s, the speed of sound (303.15 K, x1 = 0.812) was 1437.9 m/s and the speed of sound (303.15 K, x1 = 0.8415) was 1436.6 m/s. It also gave a speed of sound (303.15 K, x1 = 0.8812) of 1434.9 m/s, a speed of sound (303.15 K, x1 = 0.9423) of 1432.9 m/s and a speed of sound (308.15 K, x1 = 0.0513) of 1503.9 m/s. For the same compound, the speed of sound (308.15 K, x1 = 0.1028) was 1498.8 m/s, the speed of sound (308.15 K, x1 = 0.1422) was 1493.2 m/s and the speed of sound (308.15 K, x1 = 0.1894) was 1486 m/s. For the same compound, the speed of sound (308.15 K, x1 = 0.2988) was 1470.9 m/s, the speed of sound (308.15 K, x1 = 0.499) was 1447.2 m/s and the speed of sound (308.15 K, x1 = 0.591) was 1438.8 m/s. The speed of sound (308.15 K, x1 = 0.812) was 1425.8 m/s, the speed of sound (308.15 K, x1 = 0.8415) was 1424.5 m/s and the speed of sound (308.15 K, x1 = 0.9423) was 1421.1 m/s. The speed of sound (308.15 K, x1 = 1) was 1419.8 m/s, the speed of sound (313.15 K, x1 = 0.0513) was 1485.8 m/s and the speed of sound (313.15 K, x1 = 0.1028) was 1481.6 m/s. For the same compound, the speed of sound (313.15 K, x1 = 0.1422) was 1476.6 m/s, the speed of sound (313.15 K, x1 = 0.1894) was 1470 m/s and the speed of sound (313.15 K, x1 = 0.2988) was 1456 m/s. The speed of sound (313.15 K, x1 = 0.499) was 1433.9 m/s, the speed of sound (313.15 K, x1 = 0.591) was 1425.9 m/s and the speed of sound (313.15 K, x1 = 0.6991) was 1419.4 m/s. For the same compound, the speed of sound (313.15 K, x1 = 0.812) was 1413.8 m/s, the speed of sound (313.15 K, x1 = 0.8415) was 1412.6 m/s and the speed of sound (313.15 K, x1 = 0.8812) was 1411.2 m/s. The speed of sound (313.15 K, x1 = 1) was 1408.2 m/s, the speed of sound (318.15 K, x1 = 0.1028) was 1464.5 m/s and the speed of sound (318.15 K, x1 = 0.1422) was 1460.1 m/s. For the same compound, the speed of sound (318.15 K, x1 = 0.1894) was 1454.1 m/s, the speed of sound (318.15 K, x1 = 0.2988) was 1441.3 m/s and the speed of sound (318.15 K, x1 = 0.6991) was 1407.1 m/s. The speed of sound (318.15 K, x1 = 0.812) was 1402 m/s, the speed of sound (318.15 K, x1 = 0.8415) was 1400.9 m/s and the speed of sound (318.15 K, x1 = 0.8812) was 1399.6 m/s. It also gave a speed of sound (318.15 K, x1 = 0.9423) of 1398 m/s, a speed of sound (318.15 K, x1 = 1) of 1396.8 m/s and a speed of sound (323.15 K, x1 = 0.0513) of 1450.1 m/s. It also gave a speed of sound (323.15 K, x1 = 0.1028) of 1447.6 m/s, a speed of sound (323.15 K, x1 = 0.1422) of 1443.8 m/s and a speed of sound (323.15 K, x1 = 0.1894) of 1438.4 m/s. It also gave a speed of sound (323.15 K, x1 = 0.2988) of 1426.7 m/s, a speed of sound (323.15 K, x1 = 0.499) of 1407.6 m/s and a speed of sound (323.15 K, x1 = 0.591) of 1400.6 m/s. It also gave a speed of sound (323.15 K, x1 = 0.812) of 1390.3 m/s, a speed of sound (323.15 K, x1 = 0.8415) of 1389.3 m/s and a speed of sound (323.15 K, x1 = 0.8812) of 1388.1 m/s. It also gave a speed of sound (323.15 K, x1 = 1) of 1385.6 m/s.
